The supplement of paper PMC8967900

How the values were obtained:
Assay in all cases: selective drug sensitivity score (sDSS, relative to normal bone marrow) (sDSS (score)); higher = more potent and effective on the cell line relative to normal bone marrow cells
Conditions in all cases: 72 h
COG-LL-402h = test system: COG-LL-402h
TANOUE = test system: TANOUE
COG-LL-355h = test system: COG-LL-355h
SEM cells = test system: SEM cells
TMD5 = test system: TMD5
RCH-ACV = test system: RCH-ACV
NALM-16 = test system: NALM-16
380 = test system: 380
COG-LL-319h = test system: COG-LL-319h
SUP-B15 = test system: SUP-B15
MHH-CALL-3 = test system: MHH-CALL-3
CCRF-CEM = test system: CCRF-CEM
697 = test system: 697
KOPN-8 = test system: KOPN-8
CCRF-HSB2 = test system: CCRF-HSB2
COG-LL-317 = test system: COG-LL-317
KASUMI-10 = test system: KASUMI-10
MHH-CALL-2 = test system: MHH-CALL-2
MOLT-4 = test system: MOLT-4
HAL-01 = test system: HAL-01
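Further: ALL cell lines in 384-well plates, five doses spanning 10,000-fold, each plate scaled between vehicle and 100 µmol/L benzalkonium chloride controls, sDSS an adapted area-under-curve metric.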

SMILES | selective drug sensitivity score (COG-LL-402h) | selective drug sensitivity score (TANOUE) | selective drug sensitivity score (COG-LL-355h) | selective drug sensitivity score (SEM cells) | selective drug sensitivity score (TMD5) | selective drug sensitivity score (RCH-ACV) | selective drug sensitivity score (NALM-16) | selective drug sensitivity score 380 | selective drug sensitivity score (COG-LL-319h) | selective drug sensitivity score (SUP-B15) | selective drug sensitivity score (MHH-CALL-3) | selective drug sensitivity score (CCRF-CEM) | selective drug sensitivity score 697 | selective drug sensitivity score (KOPN-8) | selective drug sensitivity score (CCRF-HSB2) | selective drug sensitivity score (COG-LL-317) | selective drug sensitivity score (KASUMI-10) | selective drug sensitivity score (MHH-CALL-2) | selective drug sensitivity score (MOLT-4) | selective drug sensitivity score (HAL-01)
CC[C@@H]1C(=O)N(C)c2cnc(Nc3ccc(C(=O)NC4CCN(C)CC4)cc3OC)nc2N1C1CCCC1 [BI-2536] (top concentration 1000 nM) | 17.2 | -8.46 | 4.84 | 20.7 | 10.4 | 15.5 | 14.5 | 18.3 | 23.6 | 22.9 | 7.94 | 20.1 | 17.4 | 17 | 20.1 | 21.2 | 11.9 | 16.2 | 19.6 | 3.64
CNS(=O)(=O)Nc1nccc(Cc2c(C)c3ccc(Oc4ncccn4)cc3oc2=O)c1F (top concentration 1000 nM) | -1.18 | -1.18 | 0.02 | 1.82 | -1.18 | 0.42 | 0.72 | -1.18 | -1.18 | 10.1 | -1.18 | -1.18 | 0.02 | 2.42 | -1.18 | -1.08 | -1.18 | 1.32 | -1.18 | 0.82
CO[C@@H](C(=O)N1Cc2[nH]nc(NC(=O)c3ccc(N4CCN(C)CC4)cc3)c2C1)c1ccccc1 [Danusertib] (top concentration 10000 nM) | 11.5 | -9.16 | 3.04 | 19.2 | 14.5 | 17.9 | -0.96 | 22.4 | 19 | 18.6 | 13.8 | 18.5 | 21.4 | 19 | 19.8 | 19.4 | 13.8 | 11.7 | 14.5 | -2.56
CC(C)(O)CNc1nc(Nc2ccnc(C(F)(F)F)c2)nc(-c2cccc(C(F)(F)F)n2)n1 [Enasidenib] (top concentration 10000 nM) | -0.7 | -0.8 | -0.6 | 2.3 | -0.8 | 2.2 | -0.8 | -0.8 | 2 | -0.3 | 0.8 | -0.1 | -0.2 | 1.2 | -0.1 | 0.8 | -0.8 | -0.4 | -0.8 | -0.8
Cn1cc(C2=C(c3cn(C4CCN(Cc5ccccn5)CC4)c4ccccc34)C(=O)NC2=O)c2ccccc21 [Enzastaurin] (top concentration 10000 nM) | 5.16 | 2.46 | 6.76 | 6.76 | 0.06 | 2.36 | 5.56 | 3.96 | 2.26 | 4.86 | 3.86 | 5.06 | 5.76 | 2.46 | 5.06 | 7.26 | 4.56 | 0.66 | 6.26 | -0.34
CN1CCN(c2ccc(C(=O)Nc3n[nH]c4ccc(Cc5cc(F)cc(F)c5)cc34)c(NC3CCOCC3)c2)CC1 [Entrectinib] (top concentration 1000 nM) | -0.7 | -1.2 | 1.5 | 3.5 | -0.5 | -1.2 | 0.5 | -1.2 | -1.2 | -0.7 | -1.2 | -1.2 | -1.2 | 0.1 | 0.9 | -0.7 | 3.2 | -0.8 | -1.2 | 0
CN1CCN(c2ccc3nc(-c4c(N)c5c(F)cccc5[nH]c4=O)[nH]c3c2)CC1 [Dovitinib] (top concentration 10000 nM) | 2.96 | -0.14 | 3.66 | 10.1 | -0.14 | 0.46 | 0.96 | -0.14 | -0.14 | 0.26 | -0.14 | 0.26 | 1.56 | -0.14 | 1.86 | -0.04 | 6.46 | -0.14 | -0.14 | -0.14
CN(C)CCCOc1ccc(-c2ccc3ncc4c(c3c2)n(C2CCOCC2)c(=O)n4C)cn1 [AZD0156] (top concentration 1000 nM) | 3.34 | -0.06 | 0.74 | 1.14 | -0.06 | 7.24 | -0.06 | 2.24 | 3.84 | 1.14 | -0.06 | 1.74 | 1.04 | 2.04 | 0.94 | -0.06 | -0.06 | 1.84 | -0.06 | 0.64
COc1cc2c(cc1OC(C)C)[C@H](c1ccc(Cl)cc1)N(c1ccc(N(C)C[C@H]3CC[C@H](N4CCN(C)C(=O)C4)CC3)cc1)C(=O)C2 [NVP-CGM097] (top concentration 25000 nM) | 12.1 | -3.04 | 2.86 | -4.84 | 7.86 | 10.6 | -4.54 | 11.4 | 10.8 | 18.6 | 13.1 | -4.24 | 7.86 | 10.4 | 8.76 | 17.2 | 11.7 | 10.8 | 11.8 | 10.6
CC[C@H](NC(=O)[C@H](C)NC)C(=O)N1C[C@@H](O)C[C@H]1Cc1c(-c2[nH]c3cc(F)ccc3c2C[C@@H]2C[C@H](O)CN2C(=O)[C@H](CC)NC(=O)[C@H](C)NC)[nH]c2cc(F)ccc12 [Birinapant] (top concentration 1000 nM) | -5.1 | -5.1 | 13.3 | -5.1 | -0.1 | 3.1 | 0.5 | -5.1 | 14.5 | -3.7 | -5.1 | 1.4 | -5.1 | -5.1 | 5.7 | -5 | -4.9 | 8.7 | -5.1 | -5.1
CCc1cncnc1N1CCN(Cc2nc3cc(C(F)(F)F)ccc3[nH]2)CC1 (top concentration 10000 nM) | -0.84 | 3.26 | -0.14 | 9.76 | -0.84 | 6.46 | 0.06 | -0.84 | 1.46 | 3.46 | 2.46 | 0.36 | 4.16 | 8.36 | 4.16 | 1.26 | 2.76 | 5.56 | 2.16 | 4.76
N#Cc1ccc2[nH]c(O)c(-c3ccc(CN4CCOCC4)cn3)c2c1 [AZD-1080] (top concentration 10000 nM) | 2.08 | -0.02 | 3.98 | 4.58 | -0.02 | 3.98 | 0.48 | -0.02 | 6.28 | 5.08 | 5.18 | -0.02 | 4.38 | 4.28 | 1.08 | 3.38 | 1.88 | -0.02 | -0.02 | -0.02
CC[C@@](C)(Nc1ccnc(-c2c[nH]c3ncccc23)n1)C(=O)NCC(F)(F)F [Decernotinib] (top concentration 10000 nM) | -3.94 | -3.94 | -3.94 | -2.74 | -1.74 | -3.14 | -3.94 | 2.56 | -3.94 | -3.94 | -1.94 | -3.94 | -1.54 | -3.94 | 1.16 | -3.94 | -3.84 | -3.94 | -3.94 | -3.94
CCNCCS(=O)(=O)NC[C@@]1(c2ccccc2)SC(NC(=O)C(C)(C)C)=NN1C(=O)C(C)(C)C [Litronesib] (top concentration 1000 nM) | 18 | -7.36 | 4.44 | 20.5 | 9.64 | 22.1 | 14.3 | 19 | 22.4 | 21.7 | 7.44 | 19.8 | 20.9 | 20.6 | 21.3 | 19.5 | 14.7 | 15.6 | 13.8 | 1.94
CN(C)C(=O)c1cc2cnc(Nc3ccc(N4CCNCC4)cn3)nc2n1C1CCCC1 [Ribociclib] (top concentration 10000 nM) | 4.58 | -2.02 | 0.18 | 2.28 | 0.78 | 8.08 | 1.48 | -2.02 | 2.18 | 1.58 | 3.18 | 3.08 | 8.18 | 1.68 | 1.48 | 0.38 | 0.08 | 3.68 | -1.02 | 0.38
c1cc(CN2CCCNCCNCCCNCC2)ccc1CN1CCCNCCNCCCNCC1 [Plerixafor] (top concentration 10000 nM) | 0 | 0 | 0 | 0 | 0 | 0 | 0 | 0 | 0 | 0 | 0 | 0 | 0.7 | 0 | 0 | 0 | 0 | 0 | 0 | 0
O=C(c1ccc(OCCN2CCCCC2)cc1)c1c(-c2ccc(O)cc2)sc2cc(O)ccc12 [Raloxifene] (top concentration 10000 nM) | -1.68 | -1.38 | 3.92 | 1.62 | -1.88 | 0.02 | -2.28 | -2.28 | -2.28 | -2.18 | -2.28 | 1.42 | -0.28 | 0.52 | 2.42 | 0.42 | -2.28 | 0.22 | 1.42 | 1.82
O=c1[nH]c(=O)n([C@H]2C[C@H](O)[C@@H](CO)O2)cc1F [Floxuridine] (top concentration 10000 nM) | 28.2 | 2.92 | 6.52 | 31.5 | -1.98 | 39.1 | 10.2 | 37.9 | 26.8 | 42.4 | 26.3 | 31.1 | 35.8 | 37.3 | 4.42 | 32.4 | 29.7 | 24.2 | 26.6 | 23.7
